These results are taken from PMC9276531, “Hyaluronic acid–GPRC5C signalling promotes dormancy in haematopoietic stem cells” (Nature Cell Biology, 2022).

Molecules are shown by their SMILES.

Common to all, as to type: cell-based
The target in assay [1] is T1, GPRC5C (Homo sapiens, UniProt Q9NQ84).
T1 construct: GPRC5C-Tango plasmid, N-terminal Flag, PRESTO-Tango reporter fusion; transfected in HTLA or HEK293T cells
In words: competition with HA-fluorescein on transfected HEK293T cells, flow cytometry. Conditions: 100 uM NAG, 8 ug HA-fluorescein, 60 min, room temperature. A general note: Flow cytometry measures light scatter and fluorescence of single cells or particles in a stream.

The target in assay [2] is T1, GPRC5C. In words: PRESTO-Tango beta-arrestin recruitment, luciferase. Particulars: HTLA cells, 24 h, HEPES/HBSS pH 7.4.
Assay [3] deals with T2, GPRC5C (Homo sapiens, UniProt Q9NQ84, N41L, form not given).
T2 construct: GPRC5C-Tango plasmid, N-terminal Flag, PRESTO-Tango reporter fusion; transfected in HTLA or HEK293T cells
The assay can be described thus: PRESTO-Tango beta-arrestin recruitment, luciferase. Particulars: HTLA cells, putative N-glycosylation site mutant. (In general: Recruitment of arrestin is a read-out of receptor activation apart from second messengers.)

T1 sequence (Q9NQ84 24-441): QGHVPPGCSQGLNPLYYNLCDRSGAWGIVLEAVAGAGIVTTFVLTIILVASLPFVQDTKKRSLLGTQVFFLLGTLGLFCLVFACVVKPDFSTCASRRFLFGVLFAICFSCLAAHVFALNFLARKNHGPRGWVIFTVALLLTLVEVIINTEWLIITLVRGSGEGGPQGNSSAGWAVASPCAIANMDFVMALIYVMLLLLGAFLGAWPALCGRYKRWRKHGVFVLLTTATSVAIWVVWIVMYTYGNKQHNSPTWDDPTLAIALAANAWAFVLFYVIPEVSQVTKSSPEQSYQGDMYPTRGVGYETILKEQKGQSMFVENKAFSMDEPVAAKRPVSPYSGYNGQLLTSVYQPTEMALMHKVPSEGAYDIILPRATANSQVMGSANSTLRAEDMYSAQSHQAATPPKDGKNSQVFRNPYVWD
T2 sequence (Q9NQ84 12-429 N41L): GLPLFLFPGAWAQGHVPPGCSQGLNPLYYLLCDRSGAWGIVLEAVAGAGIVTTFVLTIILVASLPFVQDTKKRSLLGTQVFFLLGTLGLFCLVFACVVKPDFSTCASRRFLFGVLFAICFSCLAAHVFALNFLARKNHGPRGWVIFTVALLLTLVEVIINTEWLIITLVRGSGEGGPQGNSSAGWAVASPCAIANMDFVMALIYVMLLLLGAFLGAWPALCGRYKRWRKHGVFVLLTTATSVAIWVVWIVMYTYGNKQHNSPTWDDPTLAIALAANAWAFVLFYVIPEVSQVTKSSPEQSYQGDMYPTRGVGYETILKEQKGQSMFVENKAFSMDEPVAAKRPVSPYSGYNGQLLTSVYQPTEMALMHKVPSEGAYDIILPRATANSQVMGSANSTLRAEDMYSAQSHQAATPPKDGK

Consider `CC(=O)N[C@H]1C(O)O[C@H](CO)[C@@H](O)[C@@H]1O` (stereo partly drawn) [NAG, N-acetyl-D-glucosamine], for which the “competition with HA-fluorescein on transfected HEK293T cells, flow cytometry” value on GPRC5C [1] was “HA interaction with GPRC5C was reduced when NAG was present”. Further, the “concentration-response (agonist)” value on GPRC5C [2] was “HA and NAG treatments led to a dose-dependent response”; at GPRC5C [3] it was “dampened the luciferase response that was previously elicited by treatment with HA and NAG”.
